Source: the NIST ThermoML archive (doi:10.1021/je900414p)
Numbers after ± are expanded uncertainties.

Assay: xn = mol fraction of the nth substance listed
Conditions: Liquid

CCOS(=O)(=O)[O-].CCn1cc[n+](C)c1 [1-ethyl-3-methylimidazolium ethyl sulfate] + CCO
mass density [kg/m3]
Conditions	100 kPa	2500 kPa	5000 kPa	10000 kPa	15000 kPa	20000 kPa	25000 kPa	30000 kPa	35000 kPa
313.15 K, x1 = 0.05056	843.63 ± 0.68	845.7 ± 0.7	847.81 ± 0.8	851.86 ± 0.92	855.73 ± 1.1	859.44 ± 1.2	862.99 ± 1.3	866.42 ± 1.4	869.72 ± 1.6
313.15 K, x1 = 0.103	902 ± 1	903.78 ± 0.62	905.71 ± 0.66	909.43 ± 0.72	912.99 ± 0.78	916.4 ± 0.8	919.72 ± 0.89	922.91 ± 0.94	926.01 ± 0.99
313.15 K, x1 = 0.1247	923.22 ± 0.56	925.01 ± 0.58	926.88 ± 0.6	930.46 ± 0.65	933.91 ± 0.69	937.23 ± 0.72	940.45 ± 0.76	943.56 ± 0.79	946.56 ± 0.81
313.15 K, x1 = 0.2126	992.44 ± 0.47	994.08 ± 0.46	995.74 ± 0.46	998.97 ± 0.46	1002.07 ± 0.46	1005.09 ± 0.47	1008.03 ± 0.48	1010.88 ± 0.5	1013.65 ± 0.52
313.15 K, x1 = 0.2919	1041.3 ± 0.5	1042.32 ± 0.51	1043.83 ± 0.52	1046.78 ± 0.56	1049.64 ± 0.6	1052.42 ± 0.66	1055.15 ± 0.72	1057.79 ± 0.78	1060.38 ± 0.86
313.15 K, x1 = 0.3185	1054.58 ± 0.5	1055.91 ± 0.52	1057.39 ± 0.54	1060.28 ± 0.59	1063.09 ± 0.65	1065.82 ± 0.72	1068.49 ± 0.8	1071.08 ± 0.88	1073.63 ± 0.97
313.15 K, x1 = 0.4198	1098.28 ± 0.56	1099.64 ± 0.6	1101.01 ± 0.64	1103.69 ± 0.74	1106.3 ± 0.8	1108.84 ± 0.96	1111.34 ± 1.1	1113.78 ± 1.2	1116.18 ± 1.4
313.15 K, x1 = 0.4847	1120.82 ± 0.6	1122.08 ± 0.65	1123.39 ± 0.7	1125.96 ± 0.82	1128.48 ± 0.95	1130.94 ± 1.1	1133.35 ± 1.3	1135.7 ± 1.5	1138.01 ± 1.6
313.15 K, x1 = 0.5713	1146.49 ± 0.64	1147.66 ± 0.7	1148.92 ± 0.77	1151.37 ± 0.92	1153.79 ± 1.1	1156.13 ± 1.3	1158.44 ± 1.5	1160.72 ± 1.7	1162.93 ± 1.9
313.15 K, x1 = 0.6827	1173.47 ± 0.69	1174.61 ± 0.76	1175.83 ± 0.85	1178.16 ± 1	1180.44 ± 1.2	1182.7 ± 1.5	1184.92 ± 1.7	1187.08 ± 1.9	1189.22 ± 2.2
313.15 K, x1 = 0.7919	1195.34 ± 0.73	1196.17 ± 0.81	1197.31 ± 0.91	1199.56 ± 1.1	1201.76 ± 1.4	1203.92 ± 1.6	1206.06 ± 1.9	1208.15 ± 2.1	1210.22 ± 2.4
313.15 K, x1 = 0.9317	1217.11 ± 0.77	1218.16 ± 0.87	1219.26 ± 0.98	1221.43 ± 1.2	1223.56 ± 1.5	1225.65 ± 1.8	1227.71 ± 2.1	1229.75 ± 2.4	1231.75 ± 2.6
323.15 K, x1 = 0.05056	835.32 ± 0.7	837.47 ± 0.76	839.71 ± 0.82	843.97 ± 0.95	848.02 ± 1.1	851.88 ± 1.2	855.6 ± 1.4	859.16 ± 1.5	862.58 ± 1.6
323.15 K, x1 = 0.103	893.98 ± 0.61	895.85 ± 0.64	897.87 ± 0.67	901.75 ± 0.74	905.47 ± 0.81	909.03 ± 0.88	912.49 ± 0.94	915.79 ± 1	919.01 ± 1.1
323.15 K, x1 = 0.1247	915.32 ± 0.57	917.14 ± 0.59	919.07 ± 0.62	922.82 ± 0.67	926.4 ± 0.7	929.85 ± 0.76	933.19 ± 0.8	936.42 ± 0.84	939.53 ± 0.87
323.15 K, x1 = 0.2126	984.81 ± 0.47	986.48 ± 0.47	988.21 ± 0.47	991.57 ± 0.47	994.8 ± 0.5	997.91 ± 0.46	1000.95 ± 0.46	1003.91 ± 0.47	1006.77 ± 0.49
323.15 K, x1 = 0.2919	1034.05 ± 0.49	1035.04 ± 0.5	1036.64 ± 0.51	1039.7 ± 0.5	1042.66 ± 0.58	1045.53 ± 0.62	1048.35 ± 0.68	1051.07 ± 0.74	1053.73 ± 0.8
323.15 K, x1 = 0.3185	1047.28 ± 0.49	1048.63 ± 0.51	1050.16 ± 0.53	1053.16 ± 0.57	1056.05 ± 0.63	1058.87 ± 0.69	1061.63 ± 0.75	1064.29 ± 0.83	1066.91 ± 0.91
323.15 K, x1 = 0.4198	1091.13 ± 0.55	1092.5 ± 0.6	1093.93 ± 0.63	1096.7 ± 0.7	1099.39 ± 0.81	1102.02 ± 0.92	1104.58 ± 1.1	1107.1 ± 1.2	1109.55 ± 1.3
323.15 K, x1 = 0.4847	1113.75 ± 0.59	1115 ± 1	1116.36 ± 0.68	1119.02 ± 0.79	1121.59 ± 0.92	1124.12 ± 1.1	1126.59 ± 1.2	1129.01 ± 1.4	1131.39 ± 1.6
323.15 K, x1 = 0.5713	1139.53 ± 0.63	1140.71 ± 0.69	1142.02 ± 0.75	1144.55 ± 0.89	1147.01 ± 1.1	1149.42 ± 1.2	1151.81 ± 1.4	1154.14 ± 1.6	1156.41 ± 1.8
323.15 K, x1 = 0.6827	1166.57 ± 0.67	1167.74 ± 0.75	1168.97 ± 0.83	1171.37 ± 1	1173.72 ± 1.2	1176.03 ± 1.4	1178.31 ± 1.6	1180.52 ± 1.9	1182.71 ± 2.1
323.15 K, x1 = 0.7919	1188.51 ± 0.71	1189.35 ± 0.8	1190.5 ± 0.9	1192.81 ± 1.1	1195.06 ± 1.3	1197.29 ± 1.6	1199.48 ± 1.8	1201.62 ± 2.1	1203.73 ± 2.3
323.15 K, x1 = 0.9317	1210.34 ± 0.76	1211.42 ± 0.85	1212.55 ± 0.96	1214.78 ± 1.2	1216.96 ± 1.5	1219.11 ± 1.7	1221.21 ± 2	1223.29 ± 2.3	1225.34 ± 2.6
